The source of these data is patent US9815788B2, “Anti-angiogenic compounds” (University College Dublin National University of Ireland, …, priority 2012, dated 2017).

Counter-ions that a name gives are not always drawn.

The test system of experiment [1] is OE33R radio-resistant oesophageal adenocarcinoma cells. Kind of experiment: Surviving fraction (colony formation), OE33R. Conditions: 10 μM, 24 hours. The class given is cell-based, human. The protocol: (§1) OE33P radio-sensitive and OE33R radio-resistant oesophageal adenocarcinoma cells were used to test the effects of the compounds 11B HCl and 11B CC11 HCl on cell survival. Cells were maintained in RPMI media supplemented with 10% foetal calf serum, penicillin (100 U/ml) and streptomycin (100 μg/ml). Cells were seeded in 6 well plates and left to incubate for 24 hours. The media was replaced with solutions containing 10 μM of 11B HCl, 11B CC11 HCl or fresh media as a control. After 24 hours of treatment, media was replaced. When control colonies had grown sufficiently large, the media was disposed and the cells washed with PBS. The cells were fixed with methanol and stained with crystal violet. The surviving fraction, the ability of the cells to form colonies was then determined.
as §1, with “replaced and cells were subjected to 2Gy radiation.” for “replaced.”, “Surviving” for “The surviving”
as §1, with “hours. The cells were subjected to 2Gy irradiation and the media was” for “hours. The media was”, “crystal violet. Surviving fraction, the” for “crystal violet. The surviving fraction, the”

Experiment [2] concerns OE33P radio-sensitive oesophageal adenocarcinoma cells. Description: Surviving fraction (colony formation), OE33P. The class given is cell-based, human. The settings on record: 10 μM, 24 hours. How it is done: as §1
as §1, with “replaced and cells were subjected to 2Gy radiation.” for “replaced.”, “Surviving” for “The surviving”
OE33P radio-sensitive and OE33R radio-resistant oesophageal adenocarcinoma cells were used to test the effects of the compounds 11B HCl and 11B CC11 HCl on cell survival. Cells were maintained in RPMI media supplemented with 10% foetal calf serum, penicillin (100 U/ml) and streptomycin (100 μg/ml). Cells were seeded in 6 well plates and left to incubate for 24 hours. […] Surviving fraction, the ability of the cells to form colonies was then determined.

Experiment [3] deals with zebrafish hyaloid vasculature. Kind of experiment: Quantification of primary hyaloid vasculature branch number in Tg(fli1:EGFP) zebrafish. The settings on record: for dose-dependent inhibition of development of hyaloid vessels: decreasing doses 20, 10, 7.5, 5, 2.5, 1 and/or 0.5 μM, HCl salt; for inhibition of developmental angiogenesis of the hyaloid vasculature (number of primary hyaloid vessels): typically 10 μM or 5 μM, from 24 hpf, vs DMSO control. The class given is in vivo. In a few lines: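 Tg(fli1:EGFP) larvae raised at 28° C on a 14/10 hr light cycle, euthanised and fixed overnight in 4% PFA at 4° C. Dissected lenses imaged by epi-fluorescence; hyaloid vessel patterning compared with DMSO controls and the archetypal pattern.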

Experiment [4] deals with OE33R radio-resistant oesophageal adenocarcinoma cells. Description: Quantification of glycolysis (ECAR, Seahorse), OE33R. Conditions: 10 μM, 24 hours. The class given is cell-based, human. How it is done: OE33P radio-sensitive and OE33R radio-resistant oesophageal adenocarcinoma cells were used to test the effects of compounds 11B HCl, 11B CC11 HCl, 11B CC16 HCl, 11B 471 and 11B 268 on glycolysis. Cells were maintained in RPMI media supplemented with 10% foetal calf serum, penicillin (100 U/ml) and streptomycin (100 μg/ml). A total of 11,000 or 13,000 cells, in 100 μl media, were seeded per well in 24 well plates and left to incubate for 24 hours, with an additional 150 μl media added after 5 hours. The media was replaced with solutions containing 10 μM of 11B HCl, […], 11B CC16 HCl, 11B 471, 11B 268 or fresh media as a control. Each drug had 6 replicates. After 24 hours of treatment, media was replaced with modified DMEM supplemented with 0.5 mM glucose. Rates of glycolysis were determined using Seahorse Biosciences metabolism technology. The media was disposed and the cells washed with PBS. The cells were fixed with 1% glutaraldehyde for 15 minutes and then stained with crystal violet for 30 minutes. The plates were blotted and dried overnight. The cells were resuspended with 1% TritonX-100 and shaken for 15 minutes. The absorbance was read on a spectrophotometer at 590 nm. Rates of glycolysis were then normalised to cell number.
OE33P radiosensitive oesophageal adenocarcinoma cells were used to test the effects of the compound 11B_ZHCl on glycolysis. Cells were maintained in RPMI media supplemented with 10% foetal calf serum, penicillin (100 U/ml) and streptomycin (100 μg/ml). A total of 11,000 cells, in 100 μl media, were seeded per well in 24 well plates and left to incubate for 24 hours, with an additional 150 μl media added after 5 hours. The media was replaced with solutions containing 10 μM of 11B_ZHCl or fresh media as a control. Each treatment had 6 replicates. After 24 hours of treatment, media was replaced with modified DMEM supplemented with 0.5 mM glucose. Rates of glycolysis were determined using Seahorse Biosciences metabolism technology. […] The absorbance was read on a spectrophotometer at 590 nm. […] No changes in ECAR were detected in OE33R treated cells.

Where [5] appears, read: treated following 2Gy irradiation.
[6] abbreviates: treated prior to 2Gy irradiation.

Regarding `C/C(=C\c1ccccc1O)c1ccc2ccccc2n1.Cl` [Compound 11B_CC11_HCl, (E)-2-(2-Quinolin-2-yl-propenyl)-phenol HCl salt], the surviving fraction entry in experiment [1] (no irradiation), in experiment [1] (setting [5]), in experiment [1] (setting [6]) and in experiment [2] (no irradiation) was “significantly reduce” each time. Further, the “dose-dependent inhibition of development of hyaloid vessels” value in experiment [3] is recorded as “inhibit developmental angiogenesis of zebrafish hyaloid vasculature in a dose-dependent statistically significant manner”; in experiment [3] (listed as 11B-CC11 HCl), “dose-dependent effect”. Further, the “inhibition of developmental angiogenesis of the hyaloid vasculature (number of primary hyaloid vessels)” value in experiment [3] is listed as “inhibit developmental angiogenesis of the zebrafish hyaloid vasculature in a statistically significant manner”.

As to `Cl.Oc1ccccc1/C=C\c1ccc2ccccc2n1` [Compound 11B_Z_HCl, (Z)-2-(2-(Quinolin-2-yl)vinyl) phenol HCl salt], the “extracellular acidification rate (ECAR), a measure of glycolysis” value in experiment [4] is on record as “No changes”. The “inhibition of developmental angiogenesis of the hyaloid vasculature (number of primary hyaloid vessels)” value in experiment [3] was “inhibit developmental angiogenesis of the zebrafish hyaloid vasculature in a statistically significant manner”.

Turning to `Oc1ccccc1/C=C/c1ccc2ccccc2n1` [11B HCl], the surviving fraction result was “significantly reduce” in experiment [1] (no irradiation); “significantly reduce” in experiment [1] (setting [5]); “significantly reduce” in experiment [1] (setting [6]); “significantly reduce” in experiment [2] (no irradiation); “significantly reduces” in experiment [2] (setting [6]). The “extracellular acidification rate (ECAR), a measure of glycolysis” value in experiment [4] is listed as “significantly reduce”.
